Laboratory results published in patent publication US4767758A, “Pharmaceutical compositions containing thiophene compounds, and new thiophene compounds” (Consiglio Nazionale Delle Ricerche, priority 1984, dated 1988).

Columns and labels:
L 929 cells [1] = assay: Cytotoxicity on cell cultures (Table 2)
Experimental: (§1) The biological and pharmacological activity of the compounds under examination was tested on cell cultures and under gamma radiations. Concentrations of 10^-6, 5×10^-6, 10^-5 and 10^-3 M of each compound were used. These aqueous solutions were added to cell cultures containing from 50 to 60 L 929 cells per mm^2; nutrient solution RPM-1-1640 containing 3% calf serum. Contact between the cells and the compound under examination was continued for six hours under nitrogen and under air. Parts of the solutions during the contact with the drug were irradiated in gamma cell with 1000, 2000 and 3000 rad always using a control sample without the drug.

[2] = Reactivity with OH radicals, pulse irradiation (Table 3); settings: KCNS 10^-4 M; pulse 50 nsec, dose 18 Gy; λ=500 nm
Text: (§2) For testing the reactivity with oxygen radicals, solutions of the compounds under examination in very pure water were submitted to irradiation by an electron flow in accordance with the following procedure:
The irradiated solution for measurement of reactivity with OH radicals contained KCNS 10^-4 M and increasing concentrations of the compounds under examination. The concentrations were 10^-6 and 6×10^-6for the first five compounds of Table 1, 10^-5 and 10^-4, 10^-3 M for the other eight compounds.
The water used for the tests was neutral and made absolutely pure by deionization and four distillations also in the presence of oxidizing agents (KMnO4).
The irradiation conditions were: pulse 50 nsec, dose 18 Gy.
Absorption was performed at λ=500 nm.

[3] = Reactivity with O2 radicals, pulsed electron beams (Table 3); settings: potassium formiate solution saturated with O2; 12 MeV pulsed electron beams
Text: as §2
The O2 species was generated by irradiation of a […] solution of potassium formiate satured with O2 with 12 MeV pulsed electron beams.
The concentration of the O2 radical produced is depending from the irradiation dose (which is proportional to the length of the pulse) and was in any case in excess with respect to the concentration of the reacting substance.

[4] = Acute toxicity test by oral and intravenous route on male mice (Table 4); type: in vivo; settings: mouse, in vivo, male mice
Experimental: (§3) The acute toxicity test was carried out by oral and intravenous route on male mice, weighing 19-21 g, which were deprived of meal for 16 hrs before treatment. Oral administration was performed by a gastric probe at doses of 500, 750, 1000 and 2000 mg/kg respectively, of the compounds under examination in aqueous solution of Tween (R). The intravenous administrations was performed in the caudal vein at doses of 100 and 200 mg/kg in 0.9% sodium chloride solution. The administered volumes were 1 ml/20 g by oral route and 0.5 ml/20 g by intravenous route.
(§4) After administration the mice were kept under control for 14 days.

male mice = assay: as above; type: in vivo; settings: 14 days
Experimental: as §3, §4

L 929 cells [5] = assay: Radiosensitization of cells in hypoxic condition under gamma radiation (Table 1); type: cell-based
Experimental: as §1, with “Concentrations of 10^-6, 5×10^-6, 10^-5 and 10^-3 M of each compound were used.” left out

[6] = culture time 0 hr, 0.5 × 10^-5 M, control 40
[7] = culture time 6 hr, 0.5 × 10^-5 M, control 62
[8] = culture time 12 hr, 0.5 × 10^-5 M, control 80
[9] = culture time 24 hr, 0.5 × 10^-5 M, control 166
[10] = culture time 0 hr, 5 × 10^-5 M, control 40
[11] = culture time 6 hr, 5 × 10^-5 M, control 62
[12] = culture time 12 hr, 5 × 10^-5 M, control 80
[13] = culture time 24 hr, 5 × 10^-5 M, control 166

SMILES	Reactivity with OH radicals measured as a speed constant (KOH·) [2]	Reactivity with O2 radicals measured as a speed constant (KO2-·) [3]	Cytotoxicity Index (number of cells) (L 929 cells [1]; [10])	Cytotoxicity Index (number of cells) (L 929 cells [1]; [11])	Cytotoxicity Index (number of cells) (L 929 cells [1]; [12])	Cytotoxicity Index (number of cells) (L 929 cells [1]; [13])	Radiosensitization Index (R.S.I.) (L 929 cells [5]; concentration 1 × 10^-4 M)	further results
O=[N+]([O-])c1cc([N+](=O)[O-])c(I)s1 [Compound 1]	2.1e+10 M⁻¹ s⁻¹	3.5e+06 M⁻¹ s⁻¹	–	–	–	–	–	Cytotoxicity Index (number of cells) (L 929 cells [1]; [6]): 36 number of cells; Cytotoxicity Index (number of cells) (L 929 cells [1]; [7]): 35 number of cells; Cytotoxicity Index (number of cells) (L 929 cells [1]; [8]): 42 number of cells; Cytotoxicity Index (number of cells) (L 929 cells [1]; [9]): 71 number of cells; LD50 at 336 h ([4]; intravenous): 200 mg/kg; LD50 at 336 h ([4]; oral): 760 mg/kg; Death (dead/treated animals) (male mice; intravenous, 100 mg/kg): 0/5; Death (dead/treated animals) (male mice; intravenous, 200 mg/kg): 0/5; Death (dead/treated animals) (male mice; oral, 500 mg/kg): 0/5; Death (dead/treated animals) (male mice; oral, 750 mg/kg): 2/5; Death (dead/treated animals) (male mice; oral, 1000 mg/kg): 5/5
O=[N+]([O-])c1csc([N+](=O)[O-])c1 [Compound 2]	–	–	–	–	–	–	–	Cytotoxicity Index (number of cells) (L 929 cells [1]; [6]): 46 number of cells; Cytotoxicity Index (number of cells) (L 929 cells [1]; [7]): 40 number of cells; Cytotoxicity Index (number of cells) (L 929 cells [1]; [8]): 68 number of cells; Cytotoxicity Index (number of cells) (L 929 cells [1]; [9]): 80 number of cells
CS(=O)(=O)c1cc([N+](=O)[O-])c(I)s1 [Compound 3]	–	–	–	–	–	–	–	Cytotoxicity Index (number of cells) (L 929 cells [1]; [6]): 37 number of cells; Cytotoxicity Index (number of cells) (L 929 cells [1]; [7]): 30 number of cells; Cytotoxicity Index (number of cells) (L 929 cells [1]; [8]): 35 number of cells; Cytotoxicity Index (number of cells) (L 929 cells [1]; [9]): 50 number of cells
O=[N+]([O-])c1ccc(Oc2sccc2[N+](=O)[O-])cc1 [Compound 4]	1.3e+10 M⁻¹ s⁻¹	20000 M⁻¹ s⁻¹	–	–	–	–	–	Cytotoxicity Index (number of cells) (L 929 cells [1]; [6]): 56 number of cells; Cytotoxicity Index (number of cells) (L 929 cells [1]; [7]): 34 number of cells; Cytotoxicity Index (number of cells) (L 929 cells [1]; [8]): 48 number of cells; Cytotoxicity Index (number of cells) (L 929 cells [1]; [9]): 70 number of cells
NC(=O)c1ccc([N+](=O)[O-])s1 [Compound 5]	2.3e+10 M⁻¹ s⁻¹	30000 M⁻¹ s⁻¹	40 number of cells	32 number of cells	50 number of cells	80 number of cells	–	Radiosensitization Index (R.S.I.) (L 929 cells [5]; concentration 5 × 10^-5 M): 1.40
O=C(O)c1ccc([N+](=O)[O-])s1 [Compound 6]	7.5e+09 M⁻¹ s⁻¹	100000 M⁻¹ s⁻¹	50 number of cells	60 number of cells	70 number of cells	110 number of cells	1.82	–
O=C(O)CCNC(=O)c1ccc([N+](=O)[O-])s1 [Compound 7]	–	–	56 number of cells	70 number of cells	75 number of cells	164 number of cells	1.38	–
O=C(O)CCCNC(=O)c1ccc([N+](=O)[O-])s1 [Compound 8]	–	–	47 number of cells	50 number of cells	80 number of cells	152 number of cells	1.30	–
O=C(c1ccc([N+](=O)[O-])s1)N1CCOCC1 [Compound 9, 5-nitro-2-carboxythiophene-morpholinamide]	3.1e+10 M⁻¹ s⁻¹	230000 M⁻¹ s⁻¹	64 number of cells	60 number of cells	80 number of cells	138 number of cells	1.56	LD50 at 336 h ([4]; oral): 2000 mg/kg; Death (dead/treated animals) (male mice; intravenous, 100 mg/kg): 0/5; Death (dead/treated animals) (male mice; intravenous, 200 mg/kg): 0/5; Death (dead/treated animals) (male mice; oral, 500 mg/kg): 0/5; Death (dead/treated animals) (male mice; oral, 750 mg/kg): 0/5; Death (dead/treated animals) (male mice; oral, 1000 mg/kg): 1/5; Death (dead/treated animals) (male mice; oral, 2000 mg/kg): 3/5
CN1CCN(C(=O)c2ccc([N+](=O)[O-])s2)CC1 [Compound 10, 5-nitro-2-carboxythiophene-N-methyl-piperazinamide]	1e+10 M⁻¹ s⁻¹	33000 M⁻¹ s⁻¹	50 number of cells	52 number of cells	60 number of cells	86 number of cells	1.58	–
CC(=O)Nc1ccc([N+](=O)[O-])s1 [Compound 11, 5-nitro-2-(N-acetyl)-thienylamine]	–	–	44 number of cells	52 number of cells	60 number of cells	90 number of cells	1.65	–
O=C(O)C(C(=O)O)c1csc([N+](=O)[O-])c1 [Compound 12, 5-nitro-3-thiophenemalonic acid]	7.2e+09 M⁻¹ s⁻¹	10000 M⁻¹ s⁻¹	50 number of cells	60 number of cells	74 number of cells	136 number of cells	1.88	LD50 at 336 h ([4]; oral): 1200 mg/kg; Death (dead/treated animals) (male mice; intravenous, 100 mg/kg): 0/5; Death (dead/treated animals) (male mice; intravenous, 200 mg/kg): 0/5; Death (dead/treated animals) (male mice; oral, 500 mg/kg): 0/5; Death (dead/treated animals) (male mice; oral, 750 mg/kg): 0/5; Death (dead/treated animals) (male mice; oral, 1000 mg/kg): 2/5; Death (dead/treated animals) (male mice; oral, 2000 mg/kg): 5/5
ON=Cc1ccc(Br)s1 [Compound 13, 5-bromo-2-thiophenaldoxime]	8e+09 M⁻¹ s⁻¹	23000 M⁻¹ s⁻¹	43 number of cells	50 number of cells	70 number of cells	130 number of cells	1.65	LD50 at 336 h ([4]; oral): 1800 mg/kg; Death (dead/treated animals) (male mice; intravenous, 100 mg/kg): 0/5; Death (dead/treated animals) (male mice; intravenous, 200 mg/kg): 0/5; Death (dead/treated animals) (male mice; oral, 500 mg/kg): 0/5; Death (dead/treated animals) (male mice; oral, 750 mg/kg): 0/5; Death (dead/treated animals) (male mice; oral, 1000 mg/kg): 2/5; Death (dead/treated animals) (male mice; oral, 2000 mg/kg): 3/5
COCC(O)Cn1ccnc1[N+](=O)[O-] (stereo not shown) [Misonidazole, reference compound]	–	–	–	–	–	–	–	Radiosensitization Index (R.S.I.) (L 929 cells [5]; concentration 1 × 10^-3 M): 1.65
